Experimental data as given in US6468472B1 (priority 1999, dated 2002).
Where two headings read alike, the source gives them in different places.

What was measured:
[1] = tested on: pathogenic microorganisms; conditions: cited from earlier work; for minimum effective concentration for high-level disinfection: 20° C.
Bacillus subtilis spores = conditions: cited from earlier work
[2] = second-order dependence on peracetic acid concentration (Yuan et al.); cited from earlier work
[3] = Peracetic acid stability versus pH; assay type: physicochemical; conditions: acetic acid buffer at pH 5.0-5.8

Row | Structure (SMILES) | minimum effective concentration for high-level disinfection ([1]; 30 min, Sporox) [%] | time for killing all Bacillus subtilis spores (Bacillus subtilis spores; pH 5) [h] | time for killing all Bacillus subtilis spores (Bacillus subtilis spores; pH 8) [h] | pH of maximum decomposition rate [2] | minimum effective concentration for high-level disinfection ([1]; 25 min, Peract) [%] | minimum effective concentration for high level disinfection in a short time interval or sterilization over a longer soak period [1] [ppm] | amount which can be stably maintained [3] | time for killing all Bacillus subtilis spores (Bacillus subtilis spores; PAA at 0.013 m/l (0.10% w/v), pH 5.0) [h] | time for killing all Bacillus subtilis spores (Bacillus subtilis spores; PAA at 0.013 m/l (0.10% w/v), pH 8.0) [h] | reduction in sporicidal rate of kill activity between pH 8.0 and pH 5.0 (Bacillus subtilis spores; PAA at 0.13-0.38 m/l (0.99-2.89% w/v)) | decrease of sporicidal activity between pH 2.6 and pH 8.0 (factor) (Bacillus subtilis spores; work of Baldry) | increase in sporicidal kill time at pH 8.0 versus 5.0 (Bacillus subtilis spores; work of Baldry) [times] | increase in kill time at pH 2.6 versus pH 5.0 (Bacillus subtilis spores; work of Baldry, possible factor) [times]
1 | OO [Formulation H2O2, hydrogen peroxide] | 6.0 | 3 | 6 | – | – | – | – | – | – | – | – | – | –
2 | CC(=O)OO [PAA, peracetic acid] | – | – | – | 8.2 | 0.05 | 500 | less than 700 ppm | 1 | > 6 | did not show a reduction | 3-10 times | 6 | 2
